Measurements: patent US20080319163A1, “Method for Isolating and Purifying Immuno-Modulating Polypeptide from Cow Placenta” (priority 2005, published 2008)
“Also recorded” adds a separate entry of the source.

Experiments:
[1] = test system: mice spleen lymphocyte; experiment: Stimulating lymphocyte proliferation in vitro (MTT method); type: cell-based; conditions: mice spleen lymphocyte suspension, 68 h + 4 h MTT, OD 570 nm; chromatography fractions screened; values only in figures; listed as component 4
Description: 1) Stimulating Lymphocyte Proliferation in vitro
Culturing Cells • 1 Preparing Spleen Lymphocyte Suspension:
Remove out the mice spleen under sterile condition, separate lymphocyte by lymphocyte separation medium, regulate the cell concentration to 1×10^6/ml with complete 1640 culture solution. • 2 Experiment Arrangement:
Set control group and experiment group separately to identify the activity of stimulating spleen lymphocyte proliferation by every component. • 3. Experiment Method:
Add 100 μL mice spleen lymphocyte suspension (1×10^6/mL) to 96 well cultured plates. Add 100 μL saline/sample to control group and experiment group separately. Mix to homogenous gently, culture in incubator for 68 h at 37° C. under 5% CO2. Add 20 μl MTT to every well under sterile condition, Mix to homogenous gently, continue to culture for 4 h, add 100 μl dimethyl sulfoxide to every well, keep at room temperature for 10 min, then determine OD of every well by ELISA at 570 nm. • 4. Data Processing
The spleen lymphocyte proliferation rate of experiment group is calculated by the following formula: […]
The value of P is calculated by variance analysis, and significant difference is calculate by T test.

[2] = Isoelectric point by CIEF (capillary isoelectric focusing); type: physicochemical; conditions: determined by CIEF
Excerpt: 3) Determining isoelectric point of immuno-modulating polypeptide by CIEF.
The foresaid methods 2)-5) are the normal methods known as those skilled in the art.

Tyr-X-Phe-Leu-Gly-Leu-Pro-Gly-X-Thr [immuno-modulating polypeptide]
activity determined by stimulating lymphocyte proliferation in vitro [1]: high-purity inmmuno-modulating polypeptide; also recorded: high-purity immuno-modulating polypeptide
isoelectric point [2]: 3.82
